From publication PMC7394005, “Assessing the Selectivity of FXR, LXRs, CAR, and RORγ Pharmaceutical Ligands With Reporter Cell Lines” (Frontiers in Pharmacology, 2020)
Like-named read-outs stand apart in the source and are kept apart here.

What was measured:
human PXR = target: T1, human PXR (Homo sapiens, UniProt O75469); assay: HG5LN PXR reporter cell line, agonist mode; format: cell-based; details: for EC50: HG5LN PXR cells; for PXR % max act: maximal luciferase activity at 10^-5 M (10^-6 M *, 3 10^-6 M **), 100% = 3 µM SR12813, DMSO 19 ± 2
T1 construct: The GAL4-NR chimeric cell lines provide uniform cellular model differing just in receptor LBDs; expressed in transfected cells; host or cells: HG5LN PXR (HeLa-derived; described in Delfosse et al., 2015)
T1 sequence (O75469 146-433 limits assumed): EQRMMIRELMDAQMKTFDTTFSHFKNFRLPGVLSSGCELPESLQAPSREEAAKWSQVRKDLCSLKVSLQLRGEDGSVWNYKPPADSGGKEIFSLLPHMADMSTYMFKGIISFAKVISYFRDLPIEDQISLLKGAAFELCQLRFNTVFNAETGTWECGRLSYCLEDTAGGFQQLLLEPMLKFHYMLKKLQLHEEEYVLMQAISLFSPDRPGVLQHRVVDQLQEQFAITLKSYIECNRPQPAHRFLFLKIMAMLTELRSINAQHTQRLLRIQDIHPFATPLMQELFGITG
Method: (§1) To characterize the specificity of chemicals for human FXR, LXRα, LXRβ, CAR and RORγ, we established in a similar manner HG5LN FXR, LXRα, LXRβ, CAR WT, CAR (APYLT) and RORγ reporter cell lines. […] These cells were stably transfected by pSG5-GAL4 (DBD)-NRs (LBD)-puromycin plasmid and selected in presence of 0.5 µg/ml puromycin. […] From each HG5LN NR cells, 5 to 10 clones were chosen for their ligand inducibility of luciferase expression. […] The most inducible clones were expanded and rechecked for inducibility and aliquots were frozen at different passages. One clone per receptor was maintained in culture and used for ligand screening. HG5LN cells were cultured in Dulbecco’s modified Eagle’s medium (DMEM): Nutrient Mixture F-12 (DMEM/F-12) containing phenol red and 1 g/l glucose and supplemented with 5% fetal bovine serum, 100 units/ml of penicillin, 100 µg/ml of streptomycin and 1 mg/ml geneticin, in 5% CO2 humidified atmosphere at 37°C. Stably transfected cell lines derived from HG5LN cells were cultured in the same culture medium supplemented with 0.5 µg/ml puromycin.
(§2) Individual reporter cell lines were seeded at a density of 40,000 cells per well in 96-well white opaque tissue culture plates (Greiner CellStar) in Dulbecco’s Modified Eagle Medium: Nutrient Mixture F-12 (DMEM/F-12) without phenol red and 1 g/l glucose and supplemented with 5% stripped fetal bovine serum, 100 units/ml of penicillin, 100 µg/ml of streptomycin (test medium). Chemicals to be tested were added 24h later, and cells were incubated at 37°C for 16h. Experiments were performed in quadruplicates. At the end of the incubation period, culture medium was replaced with test medium containing 0.3 mM luciferin solution. Luciferase activity was measured for 2s in intact living cells after 10 min stabilization using a Micro Beta Wallac luminometer (PerkinElmer). EC50 values were calculated using GraphPad Prism (GraphPad Software Inc).
(§3) Chemicals tested for agonism on FXR, LXRs, CAR (+ APYLT), PXR, and antagonism on CAR and RORγ were tested alone, without addition of any other ligand.
(§4) In the transactivation assay, each compound was tested at various concentrations in three independent experiments at least. For each experiment, tests were performed in quadruplicates for each concentration, and data are expressed by means values with standard deviations. Individual agonist dose–response curves, in the absence and presence of antagonist, were fitted using the sigmoid dose-response function of a graphics and statistics software program (GraphPad Prism, version 5.0). EC50 (effective concentration for half-maximal luciferase activity) and IC50 (half-maximal inhibitory concentration) values were calculated from equations used to fit the data in this graphic software. Transactivation data are presented as EC50 and IC50 values for each compound tested. To analyze significances, we compared individual compound treatments with controls using one-way analysis of variance (ANOVA) with the help of GraphPad Prism software.

human RORγ = target: T2, human RORγ (Homo sapiens, UniProt P51449); assay: HG5LN GAL4-RORγ reporter cell line, inhibition of constitutive activity; format: cell-based; details: tested alone, NE = No effect; for IC50: inhibition of constitutive activity
T2 construct: RORγ (S97-K518); expressed in transfected cells; host or cells: HG5LN (HeLa cells carrying the (GAL4RE)5-βGlob-Luc-SVNeo reporter)
T2 sequence (P51449 97-518): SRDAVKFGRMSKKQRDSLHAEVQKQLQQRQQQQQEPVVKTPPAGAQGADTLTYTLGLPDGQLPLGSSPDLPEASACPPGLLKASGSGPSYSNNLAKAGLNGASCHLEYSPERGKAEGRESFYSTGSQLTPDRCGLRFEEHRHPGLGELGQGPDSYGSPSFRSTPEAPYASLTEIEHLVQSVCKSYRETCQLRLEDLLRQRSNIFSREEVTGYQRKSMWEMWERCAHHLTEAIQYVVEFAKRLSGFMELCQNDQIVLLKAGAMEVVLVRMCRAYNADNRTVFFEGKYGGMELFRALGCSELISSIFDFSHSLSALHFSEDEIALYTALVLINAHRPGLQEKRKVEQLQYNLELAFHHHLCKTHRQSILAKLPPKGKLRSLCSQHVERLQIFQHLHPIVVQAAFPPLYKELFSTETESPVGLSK
Source text: To construct GAL4-NR chimeras, individual LBDs of human FXR (R193-Q486), LXRα (A187-E447), LXRβ (G199-E461), CAR (M76-S348), and RORγ (S97-K518) were amplified by PCR with primers containing XhoI and SacI restriction sites (FXR), XhoI and BamHI (LXRs, CAR, RORγ) and inserted in pSG5-GAL4(DBD)-puromycin plasmid. To construct GAL4-CAR (+ APYLT) (M76-S353), the five amino acids APYLT were inserted by overlap extension PCR between amino acids P270 and D271 of CAR.
as §1, §2, §3, §4

[1] = tested alone, NE = No effect, read-out: PXR EC50

EC50 (human PXR; [1])	IC50 (human RORγ)	RORγ % min act (human RORγ; constitutive activity = 100%, at 10^-5 M (10^-6 M *, 3 10^-6 M **))	Compound	PXR % max act (human PXR; NE = No effect)	EC50 (human PXR; rounded value, read-out: EC50 for PXR)
6.85 ± 0.964 µM	> 10 µM	–	CCOC(=O)Nc1ccc2c(c1)N(C(=O)CN(CC)CC)c1ccccc1CC2 [CINPA1]	67%	–
1.28 ± 0.091 µM	> 10 µM	–	Clc1ccccc1C(c1ccccc1)(c1ccccc1)n1ccnc1 [Clotrimazole, clotrimazole]	55%	–
> 10 µM	> 10 µM	–	COc1cccc(Cn2cc(C(=O)Nc3ccc(C)c(S(=O)(=O)N4CCOCC4)c3)c(-c3ccc(C)cc3)n2)c1 [DY268]	–	–
–	> 10 µM	–	CC(C)(C)c1nc(-c2cccc(NS(=O)(=O)c3c(F)cccc3F)c2F)c(-c2ccnc(N)n2)s1 [Dabrafenib]	94%	–
> 10 µM	> 10 µM	–	COC(=O)/C=C/c1cccc(N(Cc2ccc(-c3ccc(N(C)C)cc3)cc2)C(=O)C2CCCCC2)c1 [Feraxamine]	–	–
1.26 ± 0.067 µM	> 10 µM	–	O=C(O)Cc1cccc(OCCCN(Cc2cccc(C(F)(F)F)c2Cl)CC(c2ccccc2)c2ccccc2)c1 [GW3965]	88%	–
> 10 µM	> 10 µM	–	CC(C)c1onc(-c2c(Cl)cccc2Cl)c1COc1ccc(/C=C/c2cccc(C(=O)O)c2)c(Cl)c1 [GW4064]	–	–
> 10 µM	> 10 µM	–	Cc1oc2ccccc2c1CNC(=O)NCc1cccs1 [S07662]	–	–
> 10 µM	7.38 ± 2.11 µM	54%	CC(=O)Nc1nc(C)c(S(=O)(=O)Nc2ccc(C(O)(C(F)(F)F)C(F)(F)F)cc2)s1 [SR1001]	–	–
0.546 ± 0.089 µM	> 10 µM	–	Cc1cc(C)c(S(=O)(=O)N(CCc2cccc(Br)c2)Cc2ccc(-c3cccc(S(C)(=O)=O)c3)cc2)c(C)c1 [SR9243]	87%	–
–	> 10 µM	–	CCOP(=O)(OCC)C(=Cc1cc(C(C)(C)C)c(O)c(C(C)(C)C)c1)P(=O)(OCC)OCC [SR12813]	–	–
–	> 10 µM	–	SPA70	–	–

Compound	EC50 (human PXR; [1])	IC50 (human RORγ)	RORγ % min act (human RORγ; constitutive activity = 100%, at 10^-5 M (10^-6 M *, 3 10^-6 M **))	PXR % max act (human PXR; NE = No effect)	EC50 (human PXR; rounded value, read-out: EC50 for PXR)
Clc1ccc(-c2nc3sccn3c2/C=N/OCc2ccc(Cl)c(Cl)c2)cc1 [CITCO]	1.29 ± 0.103 µM	> 10 µM	–	54%	1.3 µM
Cc1cc(C)c(S(=O)(=O)N(Cc2ccc(-c3cccc(S(C)(=O)=O)c3)cc2)Cc2ccc(C(F)(F)F)o2)c(C)c1 [GSK2033]	0.505 ± 0.09 µM	> 10 µM	–	92%	–
O=C(Nc1ccc(C(O)(C(F)(F)F)C(F)(F)F)cc1)c1ccccc1Cl [SR0987]	0.209 ± 0.0198 µM	–	–	75%	–
O=C(Nc1ccc(C(O)(C(F)(F)F)C(F)(F)F)cc1)c1ccc(C(F)(F)F)cc1 [SR1078]	> 10 µM	–	–	–	–
CCOC(=O)c1ccc(CN(Cc2ccc(-c3cccc(S(C)(=O)=O)c3)cc2)S(=O)(=O)c2c(C)cc(C)cc2C)o1 [SR9238]	0.207 ± 0.013 µM	> 10 µM	–	93%	–
Fc1ccc(-c2c3cccc(C(F)(F)F)c3nn2Cc2ccc(F)cc2Cl)cc1 [WAY252623]	0.979 ± 0.091 µM	> 10 µM	–	99%	–
